Entries after “also recorded” stand apart in the source; their conditions may differ.
Tests used:
[1] = target: T1, trypsin-like sites (β2) of proteasome in MM cells (Homo sapiens, UniProt Q99436); assay: PROTEASOMEGLO assay of proteasome inhibition in MM cells; assay type: cell-based; conditions: NCI-H929 cells treated overnight
T1 construct: endogenous in cells; host or cells: NCI-H929, RPMI-8226 and other MM cell lines
T1 sequence (Q99436 44-277): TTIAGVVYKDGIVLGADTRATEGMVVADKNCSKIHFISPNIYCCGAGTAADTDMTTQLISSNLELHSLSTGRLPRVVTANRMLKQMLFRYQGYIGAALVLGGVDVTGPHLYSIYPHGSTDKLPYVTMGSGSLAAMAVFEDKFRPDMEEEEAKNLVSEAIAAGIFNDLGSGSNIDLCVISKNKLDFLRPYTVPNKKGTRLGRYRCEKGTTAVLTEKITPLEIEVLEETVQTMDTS
Experimental: Proteasome inhibition in MM cells was measured with luminogenic substrates using PROTEASOMEGLO assay (Promega). […] An aliquot of culture was pelleted and medium was removed and replaced with PBS. The resulting cell suspension was mixed with luminogenic substrates in the manufacturer-provided lysis/assay buffer. After 3 minutes mixing on an orbital shaker, the plate was incubated in the dark for additional 17 minutes, followed by the measurements of the luminescence, performed in triplicate for each substrate/data point. Data were analyzed as for purified proteasomes. […] Cells (1×10^6 per well of a 6-well plate) were incubated with the inhibitors for 4 hours at 37° C. and this was followed by a 2 hour incubation with 5 μM BODIPY-TMR-epoxomicin. Subsequently, the medium was removed and the cells were washed with PBS and harvested. […] The supernatant was collected and the protein concentration was determined by the Bradford assay, and used to normalize gel loading. The samples were analysed by SDS-PAGE and fluorescent densitometry as described for competition experiment in cell lysates. IC50 values were calculated from three independent experiments using […] PRISM software.

β2 and β2i sites = assay: MV-151 label-competition in extracts of RPMI-8226 MM cells; assay type: biochemical; conditions: extracts of RPMI-8226 cells, MV-151 probe
From the text: Multiple myeloma cells express constitutive proteasomes and immunoproteasomes, and substrates used for the measurement of activity were cleaved by both. To determine whether there were any differences in inhibition of constitutive proteasomes or immunoproteasomes by NC-002, NC-012, and NC-022, the fluorescent activity-based probe MV-151 (Verdoes, et al. (2006) Chem. Biol. 13:1217-1226) was used in a label-competition experiment. Extracts of RPMI-8226 MM cells (which express more immunoproteasomes than NCI-H929 cells) were treated first with the NC inhibitors and then with the MV-151 probe. This was followed by fractionation on SDS-PAGE to separate proteasome subunits and imaging to reveal those subunits labeled by the probe (i.e., unmodified by the inhibitors).

[2] = target: T2, trypsin-like site of 26S proteasomes (Oryctolagus cuniculus, UniProt G1SWK8); assay: Inhibition of purified 26S proteasomes, substrate Ac-RLR-amc; assay type: biochemical, rabbit; conditions: 26S proteasomes from rabbit muscles
T2 construct: IC50 for sites in 26S proteasomes: Tr-L; other: purified 26S proteasomes; other: 26S proteasomes from rabbit muscles
T2 sequence (G1SWK8 1-271): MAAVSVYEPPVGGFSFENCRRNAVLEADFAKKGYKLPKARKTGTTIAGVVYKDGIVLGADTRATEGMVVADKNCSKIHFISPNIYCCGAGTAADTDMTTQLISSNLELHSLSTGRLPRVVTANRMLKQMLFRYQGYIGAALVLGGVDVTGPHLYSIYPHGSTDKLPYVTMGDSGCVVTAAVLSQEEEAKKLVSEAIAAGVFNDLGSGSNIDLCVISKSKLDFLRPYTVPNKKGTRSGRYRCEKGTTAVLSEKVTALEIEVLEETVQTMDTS

CC(=O)N[C@@H](CCCNC(=N)N)C(=O)N[C@@H](CC(C)C)C(=O)N[C@@H](CCCNC(=N)N)C(=O)[C@@]1(C)CO1 [NC-012, Ac-Arg-Leu-Arg-ek]
inhibition of trypsin-like activity in live cells [1]: much higher concentrations | inhibition of constitutive (β2) versus immunoproteasome (β2i) trypsin-like sites (β2 and β2i sites): equipotent inhibitors of the trypsin-like sites of constitutive and immunoproteasomes | proteasome inhibitory potential on purified 26S proteasomes [2]: potent and specific inhibitors of the trypsin-like sites; also recorded: most potent and specific in the series

— patent US8609610B2, “Inhibitors of the trypsin-like site of the proteasome and methods of use thereof” (Trustees of Dartmouth College, priority 2011, dated 2013)
